# Laboratory results: the OligoGym collection
# HELM strings list units from the 5' end as sugar, base in round brackets, then linkage (d deoxyribose, r ribose, m 2'-O-methyl, p phosphodiester). Strings are as the collection lists them, not checked against the first reports. ss, as = sense and antisense strand; [s4r] = 4'-thioribose; [fl2r] = 2'-fluoro
# Conditions: siRNA
# Note: test system not given here.
row,Substance,target mRNA knockdown [%]
1,RNA1{r(C)p.r(C)p.r(G)p.r(C)p.r(C)p.r(C)p.r(G)p.r(G)p.r(C)p.r(G)p.r(G)p.r(C)p.r(G)p.r(C)p.r(C)p.r(U)p.r(U)p.r(U)p.m(A)p.r(T)p.r(T)}|RNA2{m(U)p.m(A)p.r(A)p.r(A)p.r(G)p.r(G)p.r(C)p.r(G)p.r(C)p.r(C)p.r(G)p.r(C)p.r(C)p.r(G)p.r(G)p.r(G)p.r(C)p.r(G)p.r(G)p.r(T)p.r(T)}$$$RNA1{StrandType:ss}|RNA2{StrandType:as}$,82
2,RNA1{r(C)p.r(C)p.r(U)p.r(C)p.r(C)p.r(C)p.m(C)p.r(A)p.r(U)p.r(C)p.r(C)p.r(C)p.r(C)p.r(U)p.r(U)p.r(U)p.m(U)p.r(A)p.r(A)p.r(T)p.r(T)}|RNA2{r(U)p.r(U)p.m(A)p.r(A)p.r(A)p.r(A)p.r(G)p.r(G)p.r(G)p.r(G)p.r(A)p.m(U)p.r(G)p.r(G)p.r(G)p.r(G)p.r(A)p.r(G)p.r(G)p.r(T)p.r(T)}$$$RNA1{StrandType:ss}|RNA2{StrandType:as}$,80
3,RNA1{r(C)p.r(C)p.r(U)p.r(C)p.r(C)p.r(C)p.r(C)p.r(A)p.r(U)p.r(C)p.r(C)p.r(C)p.r(C)p.r(U)p.r(U)p.r(U)p.r(U)p.r(A)p.r(A)p.r(T)p.r(T)}|RNA2{r(U)p.r(U)p.m(A)p.r(A)p.r(A)p.r(A)p.r(G)p.r(G)p.r(G)p.r(G)p.r(A)p.r(U)p.r(G)p.r(G)p.r(G)p.r(G)p.r(A)p.r(G)p.r(G)p.r(T)p.r(T)}$$$RNA1{StrandType:ss}|RNA2{StrandType:as}$,80
4,RNA1{r(C)p.r(C)p.r(U)p.r(C)p.r(G)p.r(G)p.r(A)p.r(G)p.r(A)p.r(G)p.r(U)p.r(U)p.r(C)p.m(U)p.r(A)p.r(C)p.r(U)p.r(C)p.r(U)p.r(T)p.r(T)}|RNA2{r(A)p.r(G)p.r(A)p.r(G)p.m(U)p.r(A)p.r(G)p.r(A)p.r(A)p.r(C)p.r(U)p.r(C)p.r(U)p.r(C)p.r(C)p.r(G)p.r(A)p.r(G)p.r(G)p.r(T)p.r(T)}$$$RNA1{StrandType:ss}|RNA2{StrandType:as}$,85
5,RNA1{r(C)p.r(C)p.r(U)p.r(C)p.r(G)p.r(G)p.r(A)p.r(G)p.r(A)p.r(G)p.r(U)p.r(U)p.r(C)p.r(U)p.r(A)p.r(C)p.r(U)p.r(C)p.r(U)p.r(T)p.r(T)}|RNA2{r(A)p.r(G)p.r(A)p.r(G)p.m(U)p.r(A)p.r(G)p.r(A)p.r(A)p.r(C)p.r(U)p.r(C)p.r(U)p.r(C)p.r(C)p.r(G)p.r(A)p.r(G)p.r(G)p.r(T)p.r(T)}$$$RNA1{StrandType:ss}|RNA2{StrandType:as}$,85
6,RNA1{r(C)p.r(G)p.[s4r](U)p.r(A)p.r(C)p.r(G)p.r(C)p.r(G)p.r(G)p.r(A)p.r(A)p.[s4r](U)p.r(A)p.r(C)p.[s4r](U)p.[s4r](U)p.r(C)p.r(G)p.r(A)p.r(T)p.r(T)}|RNA2{r(U)p.r(C)p.r(G)p.r(A)p.r(A)p.r(G)p.r(U)p.r(A)p.r(U)p.r(U)p.r(C)p.r(C)p.r(G)p.r(C)p.r(G)p.r(U)p.r(A)p.r(C)p.r(G)p.r(T)p.r(T)}$$$RNA1{StrandType:ss}|RNA2{StrandType:as}$,96.3
7,RNA1{r(C)p.r(G)p.m(C)p.r(C)p.r(C)p.m(C)p.r(C)p.r(C)p.r(U)p.m(C)p.r(A)p.r(A)p.r(G)p.r(C)p.m(U)p.r(A)p.r(C)p.r(C)p.r(G)p.r(T)p.r(T)}|RNA2{r(C)p.r(G)p.r(G)p.m(U)p.r(A)p.r(G)p.r(C)p.r(U)p.m(U)p.r(G)p.r(A)p.r(G)p.r(G)p.r(G)p.r(G)p.r(G)p.r(G)p.r(C)p.r(G)p.r(T)p.r(T)}$$$RNA1{StrandType:ss}|RNA2{StrandType:as}$,72
8,RNA1{r(C)p.r(G)p.r(A)p.r(A)p.r(A)p.r(G)p.[fl2r](U)p.r(G)p.[fl2r](U)p.r(A)p.r(U)p.r(C)p.r(C)p.r(G)p.r(A)p.r(A)p.r(G)p.r(A)p.r(C)p.r(T)p.r(T)}|RNA2{r(G)p.r(U)p.r(C)p.r(U)p.r(U)p.r(C)p.r(G)p.r(G)p.r(A)p.[fl2r](U)p.r(A)p.[fl2r](C)p.r(A)p.r(C)p.r(U)p.r(U)p.r(U)p.r(C)p.r(G)p.r(T)p.r(T)}$$$RNA1{StrandType:ss}|RNA2{StrandType:as}$,75
9,RNA1{r(C)p.r(G)p.r(A)p.r(A)p.r(A)p.r(G)p.r(U)p.r(G)p.r(U)p.r(A)p.r(U)p.r(C)p.r(C)p.r(G)p.r(A)p.r(A)p.r(G)p.r(A)p.r(C)p.r(T)p.r(T)}|RNA2{r(G)p.r(U)p.r(C)p.r(U)p.r(U)p.r(C)p.r(G)p.r(G)p.r(A)p.[fl2r](U)p.r(A)p.r(C)p.r(A)p.r(C)p.r(U)p.r(U)p.r(U)p.r(C)p.r(G)p.r(T)p.r(T)}$$$RNA1{StrandType:ss}|RNA2{StrandType:as}$,69
10,RNA1{r(C)p.r(G)p.r(A)p.r(C)p.[fl2r](G)p.r(A)p.r(U)p.r(U)p.r(C)p.r(U)p.r(U)p.r(C)p.[fl2r](U)p.r(A)p.r(C)p.r(U)p.r(C)p.r(A)p.r(A)p.r(T)p.r(T)}|RNA2{r(U)p.[fl2r](U)p.r(G)p.r(A)p.r(G)p.[fl2r](U)p.r(A)p.r(G)p.r(A)p.r(A)p.r(G)p.r(A)p.r(A)p.r(U)p.r(C)p.r(G)p.r(U)p.r(C)p.r(G)p.r(T)p.r(T)}$$$RNA1{StrandType:ss}|RNA2{StrandType:as}$,62
11,RNA1{r(C)p.r(G)p.r(A)p.r(C)p.r(G)p.r(A)p.r(U)p.r(U)p.r(C)p.r(U)p.r(U)p.r(C)p.[fl2r](U)p.r(A)p.r(C)p.r(U)p.r(C)p.r(A)p.r(A)p.r(T)p.r(T)}|RNA2{r(U)p.r(U)p.r(G)p.r(A)p.r(G)p.[fl2r](U)p.r(A)p.r(G)p.r(A)p.r(A)p.r(G)p.r(A)p.r(A)p.r(U)p.r(C)p.r(G)p.r(U)p.r(C)p.r(G)p.r(T)p.r(T)}$$$RNA1{StrandType:ss}|RNA2{StrandType:as}$,67
12,RNA1{r(C)p.r(G)p.r(A)p.r(G)p.m(U)p.r(G)p.r(U)p.r(C)p.m(U)p.r(A)p.r(A)p.r(C)p.r(G)p.r(G)p.r(G)p.r(A)p.r(G)p.r(C)p.r(C)p.r(T)p.r(T)}|RNA2{r(G)p.r(G)p.r(C)p.r(U)p.r(C)p.r(C)p.r(C)p.r(G)p.r(U)p.m(U)p.r(A)p.r(G)p.r(A)p.m(C)p.r(A)p.r(C)p.r(U)p.r(C)p.r(G)p.r(T)p.r(T)}$$$RNA1{StrandType:ss}|RNA2{StrandType:as}$,65
13,RNA1{r(C)p.r(G)p.r(A)p.r(G)p.r(U)p.r(G)p.r(U)p.r(C)p.r(U)p.r(A)p.r(A)p.r(C)p.r(G)p.r(G)p.r(G)p.r(A)p.r(G)p.r(C)p.r(C)p.r(T)p.r(T)}|RNA2{r(G)p.r(G)p.r(C)p.r(U)p.r(C)p.r(C)p.r(C)p.r(G)p.r(U)p.m(U)p.r(A)p.r(G)p.r(A)p.r(C)p.r(A)p.r(C)p.r(U)p.r(C)p.r(G)p.r(T)p.r(T)}$$$RNA1{StrandType:ss}|RNA2{StrandType:as}$,68
14,RNA1{r(C)p.r(G)p.r(C)p.r(C)p.r(C)p.r(C)p.r(C)p.r(C)p.r(U)p.r(C)p.r(A)p.r(A)p.r(G)p.r(C)p.m(U)p.r(A)p.r(C)p.r(C)p.r(G)p.r(T)p.r(T)}|RNA2{r(C)p.r(G)p.r(G)p.m(U)p.r(A)p.r(G)p.r(C)p.r(U)p.r(U)p.r(G)p.r(A)p.r(G)p.r(G)p.r(G)p.r(G)p.r(G)p.r(G)p.r(C)p.r(G)p.r(T)p.r(T)}$$$RNA1{StrandType:ss}|RNA2{StrandType:as}$,76
15,RNA1{r(C)p.r(G)p.r(G)p.r(A)p.r(U)p.r(C)p.m(U)p.m(A)p.m(C)p.r(A)p.r(C)p.r(C)p.r(U)p.r(U)p.m(C)p.r(A)p.r(A)p.r(G)p.r(A)p.r(T)p.r(T)}|RNA2{r(U)p.r(C)p.r(U)p.m(U)p.r(G)p.r(A)p.r(A)p.r(G)p.r(G)p.m(U)p.r(G)p.m(U)p.r(A)p.r(G)p.r(A)p.r(U)p.r(C)p.r(C)p.r(G)p.r(T)p.r(T)}$$$RNA1{StrandType:ss}|RNA2{StrandType:as}$,40
